Structures can show the parent of a compound that is named as a salt. Where two headings read alike, the source gives them in different places.
What was measured:
[1] = Absorption kinetic after oral administration: plasma concentration of BTG 1640; format: in vivo, rats Sprague Dawley; conditions: rat
Method: Absorption extent and rate of molecule BTG 1640 in its forms of oxalate and hydrochloride salts were evaluated.
With this intent, the two salts were dispersed in an aqueous suspension of arabic gum at 5% thus obtaining two formulations, each one orally administered through oesophageous gavage at dose of 10 mg/kg (expressed as free base of BTG 1640) to five rats Sprague Dawley.
Plasma concentration of molecule BTG 1640 was determined at different time points (see Table 7).

[2] = Stability test of BTG 1640 salts under storage conditions: total impurities; format: physicochemical; conditions: for Impurity profile (in words): condition d): 40° C./75% RH
Method: Contemporaneously, the impurity analysis in the conditions a)-d) of T/% RH were carried out.
As a confirmation of such evidence, a test for the evaluation of the impurity percentage of the sample subjected to the same conditions a)-d) of T/% RH was parallely carried out. The experimental values in Table 4 were obtained.

female CD-1 mice = assay: Acute oral toxicity; format: in vivo; conditions: for Clinical signs / Histopathological examination of kidneys: female CD-1 mice
Method: Acute oral toxicity of salts hydrochloride and oxalate of BTG-1640 was evaluated.
The two salts were dispersed in an aqueous suspension, thus obtaining two formulations, each one orally administered through oesophageous gavage at dose of 2000 mg/kg bw (expressed as free base of BTG 1640) to one of two groups comprising three female CD-1 mice per group.
The observation lasted 14 days.

[3] = Stability test of BTG 1640 salts under storage conditions: purity; format: physicochemical; conditions: for Purity %: time 0 (months)
Method: Samples of 100 mg each of BTG 1640 hydrochloride were subjected to the following preservation conditions:
The purities were then analyzed periodically, initially every three months, in order to underline possible variations.
Samples of 100 mg each of BTG 1640 oxalate prepared according to example 1B were subjected to the following preservation conditions:
Quarterly and in an overall period of nine months its purity was then analyzed in order to point out possible variations.
The stabilities were then evaluated by subjecting samples of 100 mg of each salt to the following analogous preservation conditions:
Quarterly and in an overall period of nine months their purity was then analyzed in order to underline possible variations.

[4] = Sprague Dawley, in vivo, po, 10 mg/kg
[5] = T = 25° C., humidity 60% RH, time 0 (months)
[6] = T = 30° C., humidity 65% RH, time 0 (months)
[7] = T = 40° C., humidity 75% RH, time 0 (months)
[8] = 2000 mg/kg bw oral (as free base)
[9] = condition d): 40° C./75% RH, up to six months

| Compound | % impurities ([2]; T = 5° C., time 0 (months)) [%] | % impurities [2, 5] [%] | % impurities [2, 6] [%] | % impurities [2, 7] [%] | Impurity profile (in words) [2] | Clinical signs (female CD-1 mice; [8]) | Histopathological examination of kidneys (female CD-1 mice; [8]) | Stability (in words) [3, 9] | Stability compared with BTG 1640 hydrochloride (in words) ([3]; conditions a)-d)) | further results |
| --- | --- | --- | --- | --- | --- | --- | --- | --- | --- | --- |
| CN1OC2CCCC(=O)C2C1Cc1ccccc1 [BTG 1640 oxalate, oxalate salt of rel-(3R,3aS,7aS)-3-benzyl-2-methyl-2,3,3a,4,5,6,7,7a-octahydrobenzo[d]isoxazol-4-one] | 0.27 | 0.27 | 0.27 | 0.27 | invariable impurity profile | quickly reversible neurological signs | focal and moderate balloon degeneration of the epithelium in convoluted tubules | – | – | concentration at 2 minutes [1, 4]: 2050 ng/mL; concentration at 5 minutes [1, 4]: 1870 ng/mL; concentration at 30 minutes [1, 4]: 390 ng/mL; concentration at 300 minutes [1, 4]: 0 ng/mL; Absorption compared with hydrochloride (in words) ([1]; in vivo, po, 10 mg/kg): higher absorption; % impurities ([2]; T = 5° C., time 3 (months)): 0.33%; % impurities ([2]; T = 5° C., time 9 (months)): 0.29%; % impurities ([2]; T = 25° C., humidity 60% RH, time 3 (months)): 0.30%; % impurities ([2]; T = 30° C., humidity 65% RH, time 3 (months)): 0.28%; Toxicity compared with hydrochloride (in words) (female CD-1 mice; 2000 mg/kg bw oral, female mice): less toxic; Stability compared with BTG 1640 hydrochloride (in words) [3]: higher stability; Purity % ([3]; T = 5° C.): 99.7%; Purity % ([3]; T = 25° C., humidity 60% RH): 99.7%; Purity % ([3]; T = 30° C., humidity 65% RH): 99.7%; Purity % ([3]; T = 40° C., humidity 75% RH): 99.7% |
| CN1OC2CCCC(=O)C2C1Cc1ccccc1.O=C(O)/C=C\C(=O)O (stereo not drawn) [BTG 1640 maleate] | – | 0.23 | 0.23 | – | – | – | – | degrades in unacceptable way | even worse | Stability (in words) ([3]; condition c) 30° C./65% RH, at sixth month): considerable degradation; Stability (in words) ([3]; conditions a) and b)): acceptable profile |
| CN1OC2CCCC(=O)C2C1Cc1ccccc1.Cl (stereo not drawn) [BTG 1640 hydrochloride, reference compound] | 0.36 | 0.36 | 0.36 | 0.36 | unacceptable percentage of impurities | Lethargy, ataxia, aggressiveness and vocalization | small foci of acute tubular necrosis in the cortex, balloon degeneration of the epithelium and dilatation of convoluted tubules | strong instability | – | BTG 1640 free base concentration in plasma ([1]; oral gavage 10 mg/kg (as free base), 5% arabic gum suspension, 300 minutes): 0 µg/mL; Lethality (female CD-1 mice; 2000 mg/kg bw oral (as free base), three female CD-1 mice, 14 days observation): lethal in two animals out of three; Stability (in words) ([3]; conditions a)-c): 5° C., 25° C./60% RH, 30° C./65% RH, 12 months): good stability; Validity time period ([3]; indicated on the basis of the stability results, preserved at 2-8° C.): 12 months |
| CN1OC2CCCC(=O)C2C1Cc1ccccc1.CS(=O)(=O)O (stereo not drawn) [BTG 1640 methanesulphonate] | – | 0.42 | 0.42 | – | – | – | – | – | even worse | Stability (in words) ([3]; conditions b)-d)): begins to degrade already after three months |
| CN1OC2CCCC(=O)C2C1Cc1ccccc1.O=C(O)CCC(=O)O (stereo not drawn) [BTG 1640 succinate] | – | 0.77 | 0.77 | – | – | – | – | – | even worse | Stability (in words) ([3]; all observation conditions a)-d), from the third month): shows degradation |

From patent US20100069451A1, “SALT OF 3-BENZYL-2-METHYL-2,3,3A,4,5,6,7, 7A- OCTAHYDROBENZO[D]ISOXAZOL-4-ONE” (ABIOGEN PHARMA S.P.A, priority 2006, published 2010)
